Reference: patent US20180353613A1, “ANIONIC NANOPARTICLES FOR USE IN THE DELIVERY OF ANIONIC SMALL MOLECULE DRUGS” (B.G. NEGEV TECHNOLOGIES AND APPLICATIONS LTD, priority 2015, published 2018)
In brackets after ≈: the same amount, converted by molar mass.

What was measured:
[1] = system: MDA-MB-231 cells; assay: Cellular uptake of DOX by ImageStreamX imaging flow cytometry; type: cell-based, human; conditions: 5.8 μg/ml DOX
Description: (§1) Imaging experiments using an imaging flow cytometer (Amnis ImageStreamX, ISX) were performed to quantitatively evaluate the cellular uptake of DOX. Cells were seeded in 6-well culture plates at a cell density of 300,000 cells per well. Twenty-four hours post-seeding, the cells were incubated for 4 h with Free DOX or AlgS-Ca^2+-DOX anionic NPs (5.8 μg/ml DOX, 5 mM Ca^2+, 0.5 μg/ml AlgS), and then medium was replaced to fresh medium for 24 h. For ISX analysis, the cells were harvested (at 4 or 24 h after DOX NP addition) by trypsinization followed by centrifugation at 300 g for 5 min. The cell pellet was resuspended in FACS buffer (PBS containing 2% FBS, v/v) and cells were analyzed using ImageStreamX Mark II (Amnis, Seattle, Wash.). Cell acquisition and analysis were performed using IDEAS Application, version 6.0.

[2] = system: NAR cells; assay: as above; type: cell-based, human; conditions: 5.8 μg/ml DOX
Description: as §1

[3] = system: MDA-MB-231 cells; assay: In vivo antitumor activity in MDA-MB-231 tumor-bearing athymic nude mice; conditions: 4 mg/kg i.v., three weekly injections
Description: Female athymic nude mice (six weeks old, body weight=20-23 g) are inoculated to the right cranial trunk region with MDA-MB-231 cells/Matrigel™ 1:1 (v/v) suspension (3×10^6 cells/0.2 mL/animal). Treatment is commenced when tumor size is approximately 100-150 mm^3. Mice are treated intravenously (i.v.) with three weekly injections of 4 mg/kg ([…] 12 mg/kg) of DOX or DOX NPs in saline. NPs were prepared as described above using the following stock solutions: 2 mg/ml DOX, 1M CaCl2, 50 μg/ml AlgS. Prior to injection: DOX (0.5 mg/ml), or DOX NPs were diluted 1:1.5 in saline. Tumor progression is monitored twice a week by caliper measurement and calculated using the formula: Volume=(width)^2×length/2. Mice are observed daily, and body weight is detected as possible signs of toxicity. For histological analysis, mice are euthanized at the end of the treatments. Following excision, tumors are weighted, fixed in 4% formaldehyde, embedded in paraffin, and sectioned into 5-μm slices. Tissue samples are analyzed by H&E staining for histopathological changes, Ki67 staining for cell proliferation and TUNEL assay for apoptotic cell death.

[4] = system: CT26 mouse colon carcinoma cells; assay: In vitro cytotoxicity of MTX complexes, PrestoBlue cell viability assay; type: cell-based; conditions: CT26, 48 h incubation
Description: CT26 mouse colon carcinoma cells or MDA-MB-231 human breast cancer cell line were seeded in 48-well plates at a density of 10,000 cells per well. After 24 h, medium was replaced with medium containing MTX nano-complexes or free MTX at various concentrations. After 48 h incubation, cell viability was assessed using PrestoBlue cell viability assay (Life Technologies, Carlsbad, Calif.). The assay is based on the live cell's ability to reduce resazurin (non-fluorescent) to resorufin (fluorescent). PrestoBlue working solution was prepared by dilution of PrestoBlue reagent 1:10 in cell culture medium. PrestoBlue working solution was added to the cells for 1 h at 37° C. and 5% CO2. Fluorescent intensity was measured using the Synergy Mx microplate reader (Biotek, Winooski, Vt.) at an excitation wavelength of 560 nm and emission wavelength of 590 nm. The percentage of cell viability was obtained after normalizing the data to untreated cells.
Statistical analysis was performed with GraphPad Prism version 6.05 for Windows (GraphPad Software, San Diego, Calif.). All variables are expressed as mean±SEM. […] Differences between experimental groups as a function of drug concentration were evaluated by 2-way ANOVA, with Sidak's multiple comparisons test. […]

[5] = system: MDA-MB-231 human breast cancer cell line; assay: In vitro cytotoxicity of DOX NPs, PrestoBlue cell viability assay; type: cell-based; conditions: MDA-MB-231, 48 h
Description: MDA-MB-231 or DOX-resistant human ovary carcinoma cell line NAR cells were seeded in 48-well plates at a density of 10,000 cells per well. After 24 h, medium was replaced with medium containing DOX NPs or free DOX at various concentrations. After incubation for 4 h, the medium was replaced to drug-free culture medium. After 48 h incubation, cell viability was assessed using PrestoBlue cell viability assay, as described above.
Statistical analysis was performed with GraphPad Prism version 6.05 for Windows (GraphPad Software, San Diego, Calif.). All variables are expressed as mean±SEM. To test the hypothesis that changes in DLS and potential measurements varied over time among the experimental groups, a general linear 2-way repeated-measures (RM) ANOVA model was used. The model included the effects of treatment, time, and treatment-by-time interaction, with Sidak's multiple comparisons test. Viability data was fit using 4-parametric logistic regression curve, where applicable. IC50 values obtained from the intersection of regression line with 50% response. Differences between experimental groups as a function of drug concentration were evaluated by 2-way ANOVA, with Sidak's multiple comparisons test. P<0.05 was considered statistically significant.

| SMILES | % positive cells (DOX-positive) ([1]; MDA-MB-231, 4 h) | Mean Fluorescent intensity ([1]; MDA-MB-231, 4 h) | % positive cells (DOX-positive) ([1]; MDA-MB-231, 24 h) | Mean Fluorescent intensity ([1]; MDA-MB-231, 24 h) | % positive cells (DOX-positive) ([2]; 4 h) | Mean Fluorescent intensity ([2]; 4 h) | % positive cells (DOX-positive) ([2]; 4 h, listed as free DOX) | % positive cells (DOX-positive) ([2]; 24 h) | Mean Fluorescent intensity ([2]; 24 h) | tumor size compared to controls [3] | IC50 [4] | IC50 [5] |
| --- | --- | --- | --- | --- | --- | --- | --- | --- | --- | --- | --- | --- |
| COc1cccc2c1C(=O)c1c(O)c3c(c(O)c1C2=O)C[C@@](O)(C(=O)CO)C[C@@H]3O[C@H]1C[C@H](N)[C@H](O)[C@H](C)O1.Cl [Free DOX, Doxorubicin-HCl] | 90% | 59061 | 72% | 41944 | 71% | 40932 | ~70% | 13% | 15108 | reduced | – | – |
| CN(Cc1cnc2nc(N)nc(N)c2n1)c1ccc(C(=O)N[C@@H](CCC(=O)O)C(=O)O)cc1 [MTX, Methotrexate] | – | – | – | – | – | – | – | – | – | – | 0.00696 µg/mL | 1.27 µg/mL (≈ 2.79 µM) |
